According to patent US12049474B2, “Nucleoside prodrugs and uses related thereto” (Emory University, priority 2019, dated 2024):
“And” between values parts separate entries of the source, which are not always exact repeats. Equal entries are not always repeated.

Assays:
[1] = Metabolic stability assay in human liver microsomes (HLM); type: in vitro ADME; conditions: NADPH, sampled 0-120 min; for HLM t1/2: 3 μM test compound; for half-life at 3 µM: pH 7.4, 3 μM test compound, read-out: HLM t1/2
Description: The LC-MS/MS analysis was performed using Agilent 1260 Infinity II HPLC, coupled with an Agilent G6460 triple quadrupole mass spectrometer (Agilent Technologies, USA). All the data were acquired employing Agilent 6460 Quantitative Analysis data processing software.
Reverse-phase HPLC separation for each compound was achieved either on an Agilent Porshell 120 EC-C8 column (2.1×50 mm, 2.7 μm), or on an Agilent Zorbax XDB C18 column (2.1×50 mm, 3.5 μm) with a mobile phase composed of methanol-water-formic acid or acetonitrile-water-formic acid (0.1%) at a flow rate of 0.5 mL/min (changes for some compounds). Each method was developed in the presence of an internal standard (ISTD) d5-7-ethoxy coumarin. The column temperature was maintained at 40° C. for most of the samples otherwise noted. The detection was operated in the Agilent JetStream electrospray positive ionization using multiple reaction monitoring mode (MRM).
Other MS conditions were as follows: dwell time 100 ms; gas flow 10 L/min; nebulizer pressure 45 psi; delta EMV 200 V; fragmentor voltage and collision energy for individual compounds vary.
Test compounds were dissolved in 100% DMSO or 100% MeOH to make 10 mM stock solutions. Verapamil (Sigma Aldrich) aided as a positive control and was dissolved in 100% DMSO to make 10 mM stock solutions. The 10 mM stock solution of test and control compounds were further diluted in potassium phosphate buffer (100 mM, pH 7.4) to 500 μM to ensure the organic solvent content was <0.2%. Human liver microsomes (HLMs) were purchased from Xenotech at 20 mg/mL. NADPH (Sigma Aldrich) 10 mM stocks were prepared in deionized water.
The HLM assay was prepared in a 1.5 mL Eppendorf tube with a final volume of 1100 μL for duplicate runs. Each reaction contained phosphate buffer (928.4 μL), liver microsomes (55 μL), and test compound resulting in a final concentration of 3 μM (6.6 μL of 500 μM). The reaction was initiated with 110 μL of 10 mM NADPH. Aliquots (100 μL) were removed in duplicate at 0, 15, 30, 60, 120 min (for prodrug compounds) and 0, 5, 10, 15, 30 min (verapamil, positive control compound) time intervals and quenched in cold […] of 100% methanol which contained internal standard (ISTD: d5-7-ethoxy coumarin 4 μM). Before centrifugation each of the aliquoted tubes were vortexed to make sure compounds were in the solution. The aliquots were centrifuged at 12,000 g for 5 min and the supernatant removed and placed in an LC-MS vial. Each time point was assessed using LC-MS and the area, based on the extracted ion, was integrated with respect to the ISTD. Positive controls were conducted at a final volume of 550 μL to give each time point in a single run. A no-NADPH negative control with test or control compound was performed in a single run (150 μL) at the longest time point. Controls were processed and analyzed like the test compounds. Each time point was run in duplicates followed by in-between blank washes to avoid the carryover and to equilibrate the column.

HEK293 cells = conditions: 50% cytotoxic concentration; italicized results: absence of human serum albumin
CYP2D6 = CYP2D6 (Homo sapiens (Human), UniProt P10635); test: biochemical; type: biochemical; conditions: human recombinant CYP2D6, AMMC substrate; read-out: CYP450 IC50 2D6
Description: (§1) The CYP450 inhibition assays utilized microsomes from insect cells expressing human recombinant individual cDNA-expressed CYP isoforms 3A4 and 2D6, as well as the fluorogenic probe that produces fluorescent metabolite. Standard inhibitors were co-incubated with fluorogenic substrates and their inhibitory potential (IC50) was determined. Assay conditions in terms of CYP450 protein concentration and time of incubation were standardized, enzyme kinetics parameters of each fluorescent probe substrate were estimated and IC50 values of inhibitors were determined and validated on different days to check reproducibility.
(§2) A 100 mM sodium phosphate buffer was prepared and adjusted to pH 7.4. In a separate falcon tube, a 2× enzyme/substrate (E/S) solution was prepared in phosphate buffer. The final concentration of CYP2D6 (CORNING®) and […] (AMMC) was 10 nM and 4 μM, and CYP3A4 (CORNING®) and 7-benzyloxy-4-(trifluoromethyl) coumarin (BFC) was 20 nM and 40 μM, respectively. In a separate falcon tube, a 2×NADPH regenerating system (NRS) was prepared in phosphate buffer. The final concentration for each component in the assay was as follows: • CYP2D6 assay: 0.008 mM NADPH, 3.3 mM glucose 6-phosphate, 0.4 U of glucose-6-phosphate dehydrogenase per mL
(§3) Both enzymatic assays were conducted in a 96-well microtiter plate (Black, CORNING® COSTAR®) with a final volume of 100 μL. Preparation of the plate began with the addition of 74 μL of the E/S in the first well, and 50 μL to all subsequent wells (from 2-11). The test compounds (1 μL) were dissolved in the first well to give the first row a final volume of 75 μL. A 1:3 serial dilution of the test compound was conducted by removing 25 μL from the first well and diluting it with the second and so forth until the tenth row. Final concentrations yielded a range from 200 μM-0.01 μM. Well no. 11 contained no inhibitor, and well no. 12 contained no enzyme. Both were used as controls for background fluorescence. The plate was incubated for 30 min at 37° C. After incubation, the reaction was initiated by the addition of 50 μL of the 2×NRS to each well.
Immediately (within 1 min) the fluorescence was measured using a microplate reader (BIOTEK® Synergy Neo2). CYP2D6 was monitored at Ex/Em=410/460 nm, and CYP3A4 monitored at Ex/Em=410/538 nm in kinetic mode that scanned every 5 min for 60 mins. Data was exported and analyzed using Graph Pad Prism 7. […] The IC50 value was derived after the data was fitted on a 10-point curve using a four-parameter logistic regression model.

CYP3A4 = CYP3A4 (Homo sapiens (Human), UniProt P08684); test: Fluorometric CYP450 enzyme inhibition assay, CYP3A4; type: biochemical; conditions: human recombinant CYP3A4, BFC substrate; read-out: CYP450 IC50 3A4
Description: as §1, §2
as §3, with “The test compounds (1 μL) were dissolved in the first well to give the first row a final volume of 75 μL.” left out
Immediately (within 1 min) the fluorescence was measured using a microplate reader (BIOTEK® Synergy Neo2). […] Data was exported and analyzed using Graph Pad Prism 7. […] The IC50 value was derived after the data was fitted on a 10-point curve using a four-parameter logistic regression model.

HIV = test: microbe, parasite or virus in culture; type: cell-based; conditions: pseudoviral particles, HEK293 cells; italicized results: absence of human serum albumin; read-out: HIV IC50

CYP3A4, sequence (P08684 whole entry): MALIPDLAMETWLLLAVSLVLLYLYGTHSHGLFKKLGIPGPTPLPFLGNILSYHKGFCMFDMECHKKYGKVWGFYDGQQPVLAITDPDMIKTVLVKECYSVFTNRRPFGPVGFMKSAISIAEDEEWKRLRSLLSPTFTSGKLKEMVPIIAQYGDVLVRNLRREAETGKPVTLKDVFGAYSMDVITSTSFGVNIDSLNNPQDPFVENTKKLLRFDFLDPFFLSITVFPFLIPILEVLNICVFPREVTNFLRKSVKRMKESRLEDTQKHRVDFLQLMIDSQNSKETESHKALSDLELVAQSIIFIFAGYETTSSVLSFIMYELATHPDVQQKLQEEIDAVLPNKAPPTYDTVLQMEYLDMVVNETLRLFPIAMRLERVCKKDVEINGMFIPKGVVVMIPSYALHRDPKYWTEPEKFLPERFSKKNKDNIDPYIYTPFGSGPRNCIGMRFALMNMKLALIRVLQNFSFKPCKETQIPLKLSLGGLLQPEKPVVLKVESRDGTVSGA
CYP2D6, sequence (P10635 whole entry, canonical isoform): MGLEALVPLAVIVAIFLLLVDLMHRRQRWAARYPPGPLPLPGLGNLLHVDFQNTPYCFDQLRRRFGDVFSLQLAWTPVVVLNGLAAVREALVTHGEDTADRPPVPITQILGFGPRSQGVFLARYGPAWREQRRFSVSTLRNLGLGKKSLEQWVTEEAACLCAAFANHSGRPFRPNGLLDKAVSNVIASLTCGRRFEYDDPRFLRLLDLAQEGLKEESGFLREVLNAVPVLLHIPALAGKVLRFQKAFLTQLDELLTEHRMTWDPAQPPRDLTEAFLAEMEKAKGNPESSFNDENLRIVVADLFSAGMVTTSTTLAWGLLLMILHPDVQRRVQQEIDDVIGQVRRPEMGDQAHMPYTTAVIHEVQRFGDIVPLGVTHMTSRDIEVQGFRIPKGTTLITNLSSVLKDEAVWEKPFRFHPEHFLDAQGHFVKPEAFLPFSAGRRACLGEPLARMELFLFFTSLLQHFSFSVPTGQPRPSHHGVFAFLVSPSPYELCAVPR

Which “HLM t1/2” value [1] does the source give for `C#CCCCCCCCCCCCCCCCCOP(=O)(O)CO[C@H](C)Cn1cnc2c(N)ncnc21.N` [Compound B1-1-024, Ammonium octadec-17-yn-1-yl ((((R)-1-(6-amino-9H-purin-9-yl)propan-2-yl)oxy)methyl)phosphonate] here?
The value was over 2 h.

What about the CC50 (HEK293 cells) of the same molecule?
The CC50 was over 100 µM.

What about the IC50 (CYP2D6) of the same molecule?
Its IC50 is 2.39 µM.

What about the IC50 (CYP3A4) of the same molecule?
The IC50 was 18.7 µM.

For `C#CCCCCCCCCCCCCCCCCCCOP(=O)(O)CO[C@H](C)Cn1cnc2c(N)ncnc21.N` [Compound B1-1-065, Ammonium icos-19-yn-1-yl (R)-(((1-(6-amino-9H-purin-9-yl)propan-2-yl)oxy)methyl)phosphonate], which “HLM t1/2” value [1] is on record?
Its value is over 2 h.

And the CC50 (HEK293 cells)?
The CC50 was 99.5 µM.

What about the IC50 (CYP2D6) of the same molecule?
Its IC50 is 21.9 µM.

What about the IC50 (CYP3A4) of the same molecule?
The IC50 was over 50 µM.

For `C#CCCCCCCCCCCCCCOP(=O)(O)CO[C@H](C)Cn1cnc2c(N)ncnc21.N` [EJM-8-006, Ammonium pentadec-14-yn-1-yl (R)-(((1-(6-amino-9H-purin-9-yl)propan-2-yl)oxy)methyl)phosphonate], which “HLM t1/2” value [1] is on record?
The value was 1.57 h.

And the CC50 (HEK293 cells)?
The CC50 was over 100 µM.

What about the IC50 (CYP2D6) of the same molecule?
Its IC50 is 84.9 µM.

What about the IC50 (CYP3A4) of the same molecule?
The IC50 was 54.8 µM.

With `C[C@H](Cn1cnc2c(N)ncnc21)OCP(=O)(O)OCCCSCCCCCCCCCCCCC#C[Si](C)(C)C.N` [MD-1-187, Ammonium 3-((14-(trimethylsilyl)tetradec-13-yn-1-yl)thio)propyl (R)-(((1-(6-amino-9H-purin-9-yl)propan-2-yl)oxy)methyl)phosphonate] as the molecule, how does the half-life at 3 µM [1] read?
The half-life at 3 µM was over 2 h.

What about the IC50 (CYP2D6) of the same molecule?
The IC50 was over 20 µM.

And the IC50 (CYP3A4)?
Its IC50 is over 20 µM.

With `C[C@H](Cn1cnc2c(N)ncnc21)OCP(=O)(O)OCCCSCCCCCCCCCCCOc1ccccc1.N` [MD-1-223, Ammonium 3-((11-phenoxyundecyl)thio)propyl (R)-(((1-(6-amino-9H-purin-9-yl)propan-2-yl)oxy)methyl)phosphonate] as the molecule, how does the half-life at 3 µM [1] read?
Its half-life at 3 µM is 0.25 h.

What about the IC50 (CYP2D6) of the same molecule?
Its IC50 is over 20 µM.

And the IC50 (CYP3A4)?
The IC50 was over 20 µM.

For `C#CCCCCCCCCCCCCCCOCCCOP(=O)(O)CO[C@H](C)Cn1cnc2c(N)ncnc21.N` [MD-5-72, Ammonium 3-(hexadec-15-yn-1-yloxy)propyl (R)-(((1-(6-amino-9H-purin-9-yl)propan-2-yl)oxy)methyl)phosphonate], which “HLM t1/2” value [1] is on record?
Its value is over 2 h.

What about the CC50 (HEK293 cells) of the same molecule?
Its CC50 is over 100 µM.

What about the IC50 (CYP2D6) of the same molecule?
The IC50 was over 20 µM.

What about the IC50 (CYP3A4) of the same molecule?
The IC50 was over 20 µM.

For `C[C@H](Cn1cnc2c(N)ncnc21)OCP(=O)(O)OCCCCCCCCCCCCCCCCC#C[Si](C)(C)C.N` [NP-PD-042, Ammonium [(1R)-2-(6-aminopurin-9-yl)-1-methyl-ethoxy]methyl-(18-trimethylsilyloctadec-17-ynoxy)phosphinate], which “HLM t1/2” value [1] is on record?
Its value is over 2 h.

And the CC50 (HEK293 cells)?
Its CC50 is 68.1 µM.

What about the IC50 (CYP2D6) of the same molecule?
Its IC50 is 27.1 µM.

And the IC50 (CYP3A4)?
Its IC50 is 27 µM.

For `C[C@H](Cn1cnc2c(N)ncnc21)OCP(=O)(O)OCCCCCCCCCCCCCCCCCC[Si](C)(C)C.N` [NP-PD-051, Ammonium [(1R)-2-(6-aminopurin-9-yl)-1-methyl-ethoxy]methyl-(18-trimethylsilyloctadecoxy)phosphinate], which half-life at 3 µM [1] is on record?
The half-life at 3 µM was over 2 h.

And the IC50 (CYP2D6)?
The IC50 was 16.4 µM.

What about the IC50 (CYP3A4) of the same molecule?
Its IC50 is 51.4 µM.

With `C[C@H](Cn1cnc2c(N)ncnc21)OCP(=O)(O)OCCCCCCCCCCCCCCCCCC#CC(F)(F)F.N` [NP-PD-102, Ammonium [(1R)-2-(6-aminopurin-9-yl)-1-methyl-ethoxy]methyl-(20,20,20-trifluoroicos-18-ynoxy)phosphinate] as the molecule, how does the “HLM t1/2” value [1] read?
The value was over 2 h.

And the CC50 (HEK293 cells)?
Its CC50 is 78.7 µM.

And the IC50 (CYP2D6)?
Its IC50 is over 20 µM.

What about the IC50 (CYP3A4) of the same molecule?
The IC50 was over 20 µM.

With `C[C@H](Cn1cnc2c(N)ncnc21)OCP(=O)(O)OCCCCCCCCCCCCCCCCCCCC(F)(F)F.N` [NP-PD-105, ammonium [(1R)-2-(6-aminopurin-9-yl)-1-methyl-ethoxy]methyl-(20,20,20-trifluoroicosoxy)phosphinate] as the molecule, how does the “HLM t1/2” value [1] read?
The value was over 2 h.

What about the CC50 (HEK293 cells) of the same molecule?
The CC50 was 72.4 µM.

And the IC50 (CYP2D6)?
Its IC50 is over 20 µM.

And the IC50 (CYP3A4)?
Its IC50 is over 20 µM.

For `C[C@H](Cn1cnc2c(N)ncnc21)OCP(=O)(O)OCCCOCCCCCCCCCCCCCC#CC(F)(F)F.N` [NP-PD-149, Ammonium [(1R)-2-(6-aminopurin-9-yl)-1-methyl-ethoxy]methyl-[3-(16,16,16-trifluorohexadec-14-ynoxy)propoxy]phosphinate], which “HLM t1/2” value [1] is on record?
Its value is over 2 h.

What about the CC50 (HEK293 cells) of the same molecule?
The CC50 was over 100 µM.

And the IC50 (CYP2D6)?
The IC50 was over 20 µM.

And the IC50 (CYP3A4)?
Its IC50 is 12 µM.

For `C[C@H](Cn1cnc2c(N)ncnc21)OCP(=O)(O)OCCCOCCCCCCCCCCCCCCCC(F)(F)F.N` [NP-PD-158, Ammonium [(1R)-2-(6-aminopurin-9-yl)-1-methyl-ethoxy]methyl-[3-(16,16,16-trifluorohexadecoxy)propoxy]phosphinate], which “HLM t1/2” value [1] is on record?
The value was over 2 h.

And the CC50 (HEK293 cells)?
Its CC50 is over 100 µM.

And the IC50 (CYP2D6)?
Its IC50 is over 20 µM.

And the IC50 (CYP3A4)?
The IC50 was over 20 µM.

Which results are given for `C[C@H](Cn1cnc2c(N)ncnc21)OCP(=O)(O)O` [TFV, tenofovir, reference compound]?
HLM t1/2 [1]: >2 h; IC50 (CYP2D6): > 50 µM; IC50 (CYP3A4): 45.8 µM; IC50 (HIV): 2.06 µM and 1.6 µM

With “Ammonium 3-((14-trimethylsilyl)tetradec-13-yn-1-yl)propyl(R)-(((1-(6-amino-9H-purin-9-yl)propan-2-yl)oxy)methyl)phosphonate [NP-PD-130]” as the molecule, how does the “HLM t1/2” value [1] read?
Its value is over 2 h.

And the IC50 (CYP2D6)?
The IC50 was 21.7 µM.

And the IC50 (CYP3A4)?
The IC50 was over 20 µM.
